Assay results published in patent publication US20180099931A1 (AbbVie S.à.r.l., priority 2016, published 2018).
Like-named read-outs stand apart in the source and are kept apart here.

Molecular target: T1, F508delCFTR (Homo sapiens, UniProt P13569, DEL508-508)
T1 construct: expressed in transfected cells; host or cells: CFBE41o- human lung-derived epithelial cells (CFBE4lo-F508delCFTR-HRP), doxycycline-inducible
Experiment: Cell Surface Expression-Horse Radish Peroxidase (CSE-HRP) Assay;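 for Maximum % activity (with co-corrector): co-corrector and positive control are both the same reference corrector at 2 µM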;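 for Maximum % activity (without co-corrector): percent of the 2 µM on-plate positive control corrector response above DMSO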
Format: cell-based
Details: for Emax / Maximum % activity (with co-corrector): maximum at any tested concentration, normalized to on-plate positive control; for Emax: read-out: Maximum % activity (without co-corrector)

[1] = test compound without co-corrector
[2] = test compound without co-corrector, read-out: EC50 (without co-corrector)
[3] = with co-corrector (2 μM of 3-[(2R,4R)-4-({[1-(2,2-difluoro-1,3-benzodioxol-5-yl)cyclopropyl]carbonyl}amino)-7-methoxy-3,4-dihydro-2H-chromen-2-yl]benzoic acid)
[4] = with co-corrector (2 μM of 3-[(2R,4R)-4-({[1-(2,2-difluoro-1,3-benzodioxol-5-yl)cyclopropyl]carbonyl}amino)-7-methoxy-3,4-dihydro-2H-chromen-2-yl]benzoic acid), read-out: EC50 (with co-corrector)

T1 sequence (P13569 with tags, fused parts or gaps DEL508-508): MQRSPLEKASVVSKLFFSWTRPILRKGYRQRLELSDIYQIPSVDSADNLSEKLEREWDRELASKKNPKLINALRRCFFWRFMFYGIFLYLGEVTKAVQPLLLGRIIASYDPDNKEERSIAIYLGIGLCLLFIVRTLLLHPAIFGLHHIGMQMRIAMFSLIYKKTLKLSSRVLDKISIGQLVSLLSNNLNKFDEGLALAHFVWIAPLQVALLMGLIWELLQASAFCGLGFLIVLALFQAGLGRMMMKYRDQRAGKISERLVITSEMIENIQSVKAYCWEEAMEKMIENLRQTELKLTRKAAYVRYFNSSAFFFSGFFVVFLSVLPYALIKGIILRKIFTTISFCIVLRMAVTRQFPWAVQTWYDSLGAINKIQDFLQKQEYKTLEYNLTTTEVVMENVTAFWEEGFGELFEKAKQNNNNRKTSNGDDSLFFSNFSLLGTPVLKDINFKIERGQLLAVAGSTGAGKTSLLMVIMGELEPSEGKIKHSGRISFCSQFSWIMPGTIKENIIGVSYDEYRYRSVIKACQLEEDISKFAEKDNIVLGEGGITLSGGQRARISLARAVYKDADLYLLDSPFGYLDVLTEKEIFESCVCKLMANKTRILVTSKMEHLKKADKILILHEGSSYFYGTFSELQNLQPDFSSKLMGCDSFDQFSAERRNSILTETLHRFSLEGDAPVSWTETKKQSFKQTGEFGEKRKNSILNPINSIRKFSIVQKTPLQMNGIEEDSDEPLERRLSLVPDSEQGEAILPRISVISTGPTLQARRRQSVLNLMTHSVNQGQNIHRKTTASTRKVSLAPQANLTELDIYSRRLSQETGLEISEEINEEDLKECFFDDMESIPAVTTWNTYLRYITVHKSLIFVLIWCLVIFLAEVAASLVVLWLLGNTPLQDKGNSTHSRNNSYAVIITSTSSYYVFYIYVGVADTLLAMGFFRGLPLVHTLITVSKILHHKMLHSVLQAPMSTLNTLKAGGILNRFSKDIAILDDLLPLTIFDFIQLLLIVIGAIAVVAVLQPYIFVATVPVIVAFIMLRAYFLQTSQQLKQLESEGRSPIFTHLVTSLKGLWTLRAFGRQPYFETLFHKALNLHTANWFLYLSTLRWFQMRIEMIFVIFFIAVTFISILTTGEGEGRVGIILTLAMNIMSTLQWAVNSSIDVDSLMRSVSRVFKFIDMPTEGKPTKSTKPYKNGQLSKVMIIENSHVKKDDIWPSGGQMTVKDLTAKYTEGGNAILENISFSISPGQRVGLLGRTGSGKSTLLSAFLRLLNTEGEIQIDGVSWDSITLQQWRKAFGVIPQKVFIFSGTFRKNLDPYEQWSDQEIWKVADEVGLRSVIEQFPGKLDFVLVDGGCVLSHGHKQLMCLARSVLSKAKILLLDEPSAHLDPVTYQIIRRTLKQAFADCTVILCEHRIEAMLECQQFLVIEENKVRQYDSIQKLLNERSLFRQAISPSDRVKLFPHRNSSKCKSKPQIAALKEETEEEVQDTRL

Compound	Emax [1]	EC50 [2]	Maximum % activity (with co-corrector) [3]	EC50 [4]
COc1cc2c(cc1CN[C@H]1[C@H](C(C)(C)C)[C@@H](C(=O)O)N(C(=O)OC(C)C)[C@H]1c1cccnc1OC(C)C)CCC2 [II-574]	> 200%	1000 to 10000 nM	+++ (≥350)	1000 to 10000 nM
Cc1cc(C(F)(F)F)cc(N[C@H]2[C@H](C(C)(C)C)[C@@H](C(=O)O)N(C(=O)C3CCCCC3)[C@H]2c2ccccc2C)n1 [II-575]	100 to 200%	1000 to 10000 nM	+++ (≥350)	1000 to 10000 nM
COc1ccc(C(C)(C)C)cc1CN[C@H]1[C@H](C(C)(C)C)[C@@H](C(=O)O)N(C(=O)C2CCCCC2)[C@H]1c1ccccc1C [II-576]	> 200%	< 1000 nM	+++ (≥350)	< 1000 nM
COc1ncc(N2CCCC2)cc1CN[C@H]1[C@H](C(C)(C)C)[C@@H](C(=O)O)N(C(=O)OC(C)C)[C@H]1c1cccnc1N(C)C [II-577]	100 to 200%	1000 to 10000 nM	+++ (≥350)	1000 to 10000 nM
COc1ccc(C2(C)CCC2)cc1CN[C@H]1[C@H](C(C)(C)C)[C@@H](C(=O)O)N(C(=O)[C@@H]2CCCO2)[C@H]1c1ccccc1C [II-578]	> 200%	1000 to 10000 nM	+++ (≥350)	< 1000 nM
COc1nc2ccccc2cc1CN[C@H]1[C@H](C(C)(C)C)[C@@H](C(=O)O)N(C(=O)OC(C)C)[C@H]1c1ccccc1C [II-579]	> 200%	1000 to 10000 nM	+++ (≥350)	< 1000 nM
COc1ncc(C(F)(F)F)cc1CN[C@H]1[C@H](C(C)(C)C)[C@@H](C(=O)O)N(C(=O)OC(C)C)[C@H]1c1ccccc1C [II-580]	> 200%	1000 to 10000 nM	+++ (≥350)	1000 to 10000 nM
COc1ccc(C(F)(F)F)cc1CN[C@H]1[C@H](C(C)(C)C)[C@@H](C(=O)O)N(C(=O)OC(C)C)[C@H]1c1ccccc1C [II-581]	> 200%	1000 to 10000 nM	+++ (≥350)	< 1000 nM
COc1ccc(C(C)(C)C)cc1CN[C@H]1[C@H](C(C)(C)C)[C@@H](C(=O)O)N(C(=O)OC(C)C)[C@H]1c1ccccc1C [II-582]	> 200%	1000 to 10000 nM	+++ (≥350)	< 1000 nM
CC(C)OC(=O)N1[C@H](C(=O)O)[C@@H](C(C)(C)C)[C@H](NCC2CCCN(C(=O)OCc3ccccc3)C2)[C@@H]1c1ccccc1 (stereo partly drawn) [II-583]	100 to 200%	1000 to 10000 nM	+++ (≥350)	1000 to 10000 nM
CC(C)OC(=O)N1[C@H](C(=O)O)[C@@H](C(C)(C)C)[C@H](NCC2CCCC(C(F)(F)F)C2)[C@@H]1c1ccccc1 (stereo partly drawn) [II-584]	< 100%	1000 to 10000 nM	++ (≥150 and <350)	1000 to 10000 nM
COc1ncc(C2CCC2)cc1CN[C@H]1[C@H](C(C)(C)C)[C@@H](C(=O)O)N(C(=O)[C@@H]2CCCCO2)[C@H]1c1ccccc1C [II-585]	> 200%	1000 to 10000 nM	+++ (≥350)	< 1000 nM
COc1ncc(C(F)(F)F)cc1CN[C@H]1[C@H](C(C)(C)C)[C@@H](C(=O)O)N(C(=O)[C@@H]2CCCO2)[C@H]1c1cccnc1C1CC1 [II-586]	< 100%	1000 to 10000 nM	++ (≥150 and <350)	1000 to 10000 nM
COc1cc(C(F)(F)F)ccc1CN[C@H]1[C@H](C(C)(C)C)[C@@H](C(=O)O)N(C(=O)[C@@H]2CCCO2)[C@H]1c1cccnc1C1CC1 [II-587]	100 to 200%	1000 to 10000 nM	+++ (≥350)	1000 to 10000 nM
COc1ncc(C2CCC2)cc1CN[C@H]1[C@H](C(C)(C)C)[C@@H](C(=O)O)N(C(=O)[C@@H]2CCCO2)[C@H]1c1cccnc1C1CC1 [II-588]	100 to 200%	1000 to 10000 nM	+++ (≥350)	1000 to 10000 nM
COc1ncc(C(F)(F)F)cc1CN[C@H]1[C@H](C(C)(C)C)[C@@H](C(=O)O)N(C(=O)C2CCC(F)(F)C2)[C@H]1c1ccccc1C(C)C (stereo partly drawn) [II-589]	100 to 200%	< 1000 nM	+++ (≥350)	< 1000 nM
COc1ncc(C(F)(F)F)cc1CN[C@H]1[C@H](C(C)(C)C)[C@@H](C(=O)O)N(C(=O)[C@H](C)OC)[C@H]1c1ccccc1C(C)C [II-590]	100 to 200%	1000 to 10000 nM	+++ (≥350)	< 1000 nM
COc1ncc(C(F)(F)F)cc1CN[C@H]1[C@H](C(C)(C)C)[C@@H](C(=O)O)N(C(=O)C2CCOCC2)[C@H]1c1ccccc1C(C)C [II-591]	> 200%	1000 to 10000 nM	+++ (≥350)	< 1000 nM
